According to PMC11357990, “A first-in-class selective inhibitor of EGFR and PI3K offers a single-molecule approach to targeting adaptive resistance” (Nature Cancer, 2024):

How the values were obtained:
cathepsin G (h) = target: T1, cathepsin G (h) (Homo sapiens, UniProt P08311); design: Eurofins SafetyScreen 87 enzyme part: inhibition of control enzyme activity, single concentration; details: mean of 2, 10 µM, inhibitor
T1 construct: gene CTSG

PDE3A (h) = PDE3A (h) (Homo sapiens, UniProt Q14432); design: Eurofins SafetyScreen 87 enzyme part: inhibition of control enzyme activity, single concentration; details: mean of 2, 10 µM, inhibitor
PDE4D2 (h) = target: T2, PDE4D2 (h) (Homo sapiens, UniProt Q08499); design: Eurofins SafetyScreen 87 enzyme part: inhibition of control enzyme activity, single concentration; details: mean of 2, 10 µM, inhibitor
T2 construct: gene PDE4D; isoform PDE4D2

ACE (h) = ACE (h) (Homo sapiens, UniProt P12821); design: Eurofins SafetyScreen 87 enzyme part: inhibition of control enzyme activity, single concentration; details: mean of 2, 10 µM, inhibitor
COX2(h) = target: T3, COX2(h) (Homo sapiens, UniProt P35354); design: Eurofins SafetyScreen 87 enzyme part: inhibition of control enzyme activity, single concentration; details: mean of 2, 10 µM, inhibitor
T3 construct: gene PTGS2

IRK (h) (InsR) = IRK (h) (InsR) (Homo sapiens, UniProt P06213); design: Eurofins SafetyScreen 87 enzyme part: inhibition of control enzyme activity, single concentration; details: mean of 2, 10 µM, inhibitor
COX1(h) = target: T4, COX1(h) (Homo sapiens, UniProt P23219); design: Eurofins SafetyScreen 87 enzyme part: inhibition of control enzyme activity, single concentration; details: mean of 2, 10 µM, inhibitor
T4 construct: gene PTGS1

Lck kinase (h) = Lck kinase (h) (Homo sapiens, UniProt P06239); design: Eurofins SafetyScreen 87 enzyme part: inhibition of control enzyme activity, single concentration; details: mean of 2, 10 µM, inhibitor
[1] = target: T5, MAO-B (h) recombinant enzyme (Homo sapiens, UniProt P27338); design: Eurofins SafetyScreen 87 enzyme part: inhibition of control enzyme activity, single concentration; details: mean of 2, 10 µM, inhibitor
T5 construct: gene MAOB; recombinant enzyme

PKCalpha (h) = target: T6, PKCalpha (h) (Homo sapiens, UniProt P17252); design: Eurofins SafetyScreen 87 enzyme part: inhibition of control enzyme activity, single concentration; details: mean of 2, 10 µM, inhibitor
T6 construct: gene PRKCA

[2] = target: T7, 5-HT2A (h) (agonist radioligand) (Homo sapiens, UniProt P28223); assay: biochemical; design: Eurofins SafetyScreen 87 binding part: inhibition of control specific ligand binding, single concentration; details: read-out: Binding / ================================================= / % Inhibition of Control Specific Binding
T7 construct: gene HTR2A

[3] = target: T8, Potassium Channel hERG (human)- [3H] Dofetilide (Homo sapiens, UniProt Q12809); assay: in vitro
T8 construct: gene KCNH2

EGFR = EGFR (Homo sapiens, UniProt P00533); assay: X-ray cocrystal structure ([…] Å); purified kinase assay IC50; assay type: biochemical; design: G696-G1022
PPARγ = target: T9, PPARγ (Homo sapiens, UniProt P37231); assay: X-ray cocrystal structure ([…] Å); TR-FRET competitive binding
T9 construct: gene PPARG; L232-Y505 of UniProt entry P37231-2
T9 sequence (P37231 232-505): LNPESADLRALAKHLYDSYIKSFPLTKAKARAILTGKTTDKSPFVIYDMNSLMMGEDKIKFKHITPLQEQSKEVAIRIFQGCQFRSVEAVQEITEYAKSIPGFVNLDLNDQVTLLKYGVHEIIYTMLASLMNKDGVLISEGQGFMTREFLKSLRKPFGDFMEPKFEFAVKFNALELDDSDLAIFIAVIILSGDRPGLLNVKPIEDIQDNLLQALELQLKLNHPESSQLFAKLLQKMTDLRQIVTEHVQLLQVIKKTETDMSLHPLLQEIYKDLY

ACE (h), sequence (P12821 whole entry): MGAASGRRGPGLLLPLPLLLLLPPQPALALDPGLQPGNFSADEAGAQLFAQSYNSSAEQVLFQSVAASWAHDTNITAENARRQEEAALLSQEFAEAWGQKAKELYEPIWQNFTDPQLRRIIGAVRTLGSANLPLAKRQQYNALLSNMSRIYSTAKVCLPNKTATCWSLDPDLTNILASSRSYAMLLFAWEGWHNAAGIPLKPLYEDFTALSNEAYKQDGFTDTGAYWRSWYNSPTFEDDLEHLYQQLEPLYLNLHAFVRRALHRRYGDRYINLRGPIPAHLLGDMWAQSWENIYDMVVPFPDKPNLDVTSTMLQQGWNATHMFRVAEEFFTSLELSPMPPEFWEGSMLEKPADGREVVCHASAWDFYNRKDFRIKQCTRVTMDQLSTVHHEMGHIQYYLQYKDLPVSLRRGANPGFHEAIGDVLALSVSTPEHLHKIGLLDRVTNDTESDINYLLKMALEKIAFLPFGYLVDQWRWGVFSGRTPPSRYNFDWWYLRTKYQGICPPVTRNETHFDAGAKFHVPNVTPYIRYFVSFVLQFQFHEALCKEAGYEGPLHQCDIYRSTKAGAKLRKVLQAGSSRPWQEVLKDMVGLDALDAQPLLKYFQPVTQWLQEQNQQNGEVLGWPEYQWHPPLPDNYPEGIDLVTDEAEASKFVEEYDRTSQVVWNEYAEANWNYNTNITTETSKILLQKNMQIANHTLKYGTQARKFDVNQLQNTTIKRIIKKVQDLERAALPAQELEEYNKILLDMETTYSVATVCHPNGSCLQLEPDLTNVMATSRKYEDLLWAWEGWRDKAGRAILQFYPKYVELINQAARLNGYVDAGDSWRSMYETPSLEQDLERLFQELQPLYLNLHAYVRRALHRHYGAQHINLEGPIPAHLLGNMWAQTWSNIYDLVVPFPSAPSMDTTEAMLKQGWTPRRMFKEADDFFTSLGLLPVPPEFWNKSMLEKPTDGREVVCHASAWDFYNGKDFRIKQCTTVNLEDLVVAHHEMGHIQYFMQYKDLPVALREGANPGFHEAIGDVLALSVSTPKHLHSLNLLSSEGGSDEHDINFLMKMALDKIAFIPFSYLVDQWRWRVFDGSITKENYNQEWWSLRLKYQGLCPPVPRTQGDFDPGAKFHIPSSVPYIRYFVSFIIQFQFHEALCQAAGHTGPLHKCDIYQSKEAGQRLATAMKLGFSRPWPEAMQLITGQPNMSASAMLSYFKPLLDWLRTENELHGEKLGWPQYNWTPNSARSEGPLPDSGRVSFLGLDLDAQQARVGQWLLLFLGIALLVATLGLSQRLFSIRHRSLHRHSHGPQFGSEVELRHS
Lck kinase (h), sequence (P06239 whole entry): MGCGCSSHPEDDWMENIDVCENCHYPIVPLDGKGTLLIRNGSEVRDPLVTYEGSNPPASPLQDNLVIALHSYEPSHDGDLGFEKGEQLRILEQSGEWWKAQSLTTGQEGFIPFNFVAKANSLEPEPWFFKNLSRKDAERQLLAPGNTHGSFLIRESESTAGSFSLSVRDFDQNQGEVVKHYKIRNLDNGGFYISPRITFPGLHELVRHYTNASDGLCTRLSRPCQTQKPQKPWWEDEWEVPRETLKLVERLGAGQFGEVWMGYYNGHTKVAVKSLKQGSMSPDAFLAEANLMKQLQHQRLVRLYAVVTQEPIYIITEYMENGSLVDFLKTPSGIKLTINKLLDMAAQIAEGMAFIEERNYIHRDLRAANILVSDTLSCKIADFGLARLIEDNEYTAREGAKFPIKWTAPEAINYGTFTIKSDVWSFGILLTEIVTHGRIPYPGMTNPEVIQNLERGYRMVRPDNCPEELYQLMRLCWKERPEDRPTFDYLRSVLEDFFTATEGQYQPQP
T7 sequence (P28223 whole entry): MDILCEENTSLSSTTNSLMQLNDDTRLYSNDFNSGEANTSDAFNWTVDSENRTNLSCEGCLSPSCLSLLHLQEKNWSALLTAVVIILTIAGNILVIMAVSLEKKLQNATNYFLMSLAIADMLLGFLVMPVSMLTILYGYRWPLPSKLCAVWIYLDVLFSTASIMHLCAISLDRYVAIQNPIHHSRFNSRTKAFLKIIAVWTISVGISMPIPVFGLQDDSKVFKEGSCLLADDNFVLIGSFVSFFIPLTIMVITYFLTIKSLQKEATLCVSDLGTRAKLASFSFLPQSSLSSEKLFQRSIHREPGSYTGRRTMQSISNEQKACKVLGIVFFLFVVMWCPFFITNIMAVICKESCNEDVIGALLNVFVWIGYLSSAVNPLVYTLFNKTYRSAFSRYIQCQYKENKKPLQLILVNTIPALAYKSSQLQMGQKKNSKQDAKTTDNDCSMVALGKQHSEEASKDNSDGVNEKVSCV
T4 sequence (P23219 whole entry): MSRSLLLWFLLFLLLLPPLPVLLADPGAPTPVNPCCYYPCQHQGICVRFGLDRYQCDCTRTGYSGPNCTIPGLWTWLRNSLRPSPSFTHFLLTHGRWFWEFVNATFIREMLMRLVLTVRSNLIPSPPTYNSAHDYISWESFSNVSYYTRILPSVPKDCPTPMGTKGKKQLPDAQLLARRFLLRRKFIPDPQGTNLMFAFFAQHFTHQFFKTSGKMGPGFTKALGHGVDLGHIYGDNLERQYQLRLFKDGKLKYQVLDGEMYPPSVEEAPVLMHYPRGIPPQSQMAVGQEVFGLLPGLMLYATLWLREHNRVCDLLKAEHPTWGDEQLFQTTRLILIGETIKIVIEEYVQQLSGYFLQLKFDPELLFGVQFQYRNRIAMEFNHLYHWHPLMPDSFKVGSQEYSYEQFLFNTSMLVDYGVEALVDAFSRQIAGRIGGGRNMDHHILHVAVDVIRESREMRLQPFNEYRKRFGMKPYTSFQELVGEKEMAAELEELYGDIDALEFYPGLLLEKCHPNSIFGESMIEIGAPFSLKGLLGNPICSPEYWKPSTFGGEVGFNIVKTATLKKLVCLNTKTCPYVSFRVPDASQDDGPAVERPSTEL
PDE3A (h), sequence (Q14432 whole entry): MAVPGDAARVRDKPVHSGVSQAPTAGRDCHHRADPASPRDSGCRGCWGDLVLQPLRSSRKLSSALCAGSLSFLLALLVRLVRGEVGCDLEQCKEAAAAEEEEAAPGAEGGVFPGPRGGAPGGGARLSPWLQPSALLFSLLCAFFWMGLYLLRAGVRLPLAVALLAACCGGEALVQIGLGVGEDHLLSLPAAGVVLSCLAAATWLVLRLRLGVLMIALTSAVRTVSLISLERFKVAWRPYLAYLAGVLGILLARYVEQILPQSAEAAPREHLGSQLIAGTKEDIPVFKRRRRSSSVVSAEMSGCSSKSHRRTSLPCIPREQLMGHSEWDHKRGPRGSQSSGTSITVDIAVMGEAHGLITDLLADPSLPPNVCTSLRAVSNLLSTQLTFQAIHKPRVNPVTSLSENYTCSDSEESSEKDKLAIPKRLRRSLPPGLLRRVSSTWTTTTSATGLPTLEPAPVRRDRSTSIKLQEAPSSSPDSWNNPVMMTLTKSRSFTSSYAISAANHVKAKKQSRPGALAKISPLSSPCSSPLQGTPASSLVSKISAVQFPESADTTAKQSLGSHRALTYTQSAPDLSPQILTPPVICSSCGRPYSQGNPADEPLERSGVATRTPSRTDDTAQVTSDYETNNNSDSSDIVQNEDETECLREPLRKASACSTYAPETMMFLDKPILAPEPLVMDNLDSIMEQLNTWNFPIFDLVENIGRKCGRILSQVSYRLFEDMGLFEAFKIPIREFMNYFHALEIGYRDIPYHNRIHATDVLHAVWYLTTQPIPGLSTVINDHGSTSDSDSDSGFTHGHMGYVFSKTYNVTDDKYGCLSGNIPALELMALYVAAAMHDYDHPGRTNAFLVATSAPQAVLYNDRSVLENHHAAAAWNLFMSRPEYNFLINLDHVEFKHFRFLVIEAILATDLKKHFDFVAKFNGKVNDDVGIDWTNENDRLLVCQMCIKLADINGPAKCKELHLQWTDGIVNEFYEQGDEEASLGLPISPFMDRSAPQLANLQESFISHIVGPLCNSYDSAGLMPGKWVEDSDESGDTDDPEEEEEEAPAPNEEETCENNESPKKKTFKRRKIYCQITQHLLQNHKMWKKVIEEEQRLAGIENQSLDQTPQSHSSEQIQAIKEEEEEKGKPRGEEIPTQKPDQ

With `C[C@@H](Nc1ncnc2ccc(-c3cnc(Cl)c(NS(C)(=O)=O)c3)cc12)c1ccccc1` [MTX-531, (R)-N-(2-chloro-5-(4-((1-phenylethyl)amino)quinazolin-6-yl)pyridin-3-yl)methane-sulfonamide] the “% inhibition of control enzyme activity” value (cathepsin G (h)) was 26%, the “% inhibition of control enzyme activity” value (PDE3A (h)) was 29% and the “% inhibition of control enzyme activity” value (PDE4D2 (h)) was 88%. For the same compound, the “% inhibition of control enzyme activity” value (ACE (h)) was -2%, the “% inhibition of control enzyme activity” value (COX2(h)) was -3% and the “% inhibition of control enzyme activity” value (IRK (h) (InsR)) was 0%. For the same compound, the “% inhibition of control enzyme activity” value (COX1(h)) was -4%, the “% inhibition of control enzyme activity” value (Lck kinase (h)) was 4% and the “% inhibition of control enzyme activity” value [1] was 10%. For the same compound, the “% inhibition of control enzyme activity” value (PKCalpha (h)) was -3%, the inhibition at 10 µM [2] was -5% and the inhibition at 10 µM [3] was 51%. The IC50 (EGFR) was 14.7 nM and the IC50 (PPARγ) was 2500 nM.
